In US11680086B2, “Lipopeptide for potently inhibiting HIV, derivative thereof, pharmaceutical composition thereof and use thereof” (Institute of Pathogen Biology, Chinese Academy of Medical …, priority 2017, dated 2023):
Read-outs that look alike come from different tables or passages of the source. Peptide text beside a SMILES is read from it. * marks the point of attachment. Stearoyl = CCCCCCCCCCCCCCCCCC(=O)*

Columns and labels:
[1] = tested on: HIV-1 strain NL4-3 pseudovirus (D36G mutant); type: cell-based
Protocol: The supernatant was discarded from the wells. […] Inhibition rate (%) and IC50 value were calculated.

[2] = tested on: SIV pseudoviruses SIVpbj and SIV239; test: inhibition of SIV pseudoviruses; type: cell-based
[3] = tested on: HIV-1 strain JRCSF; type: cell-based
Protocol: Inhibition rate (%) and IC50 value were calculated.

[4] = tested on: HIV-1 strain NL4-3 (NL4-3D36G); test: antiviral activity in serum of macaque after subcutaneous injection; type: in vivo, macaques (rhesus monkeys); conditions: 3 mg/kg subcutaneous
Protocol: The specific method was as follows: 6 experimental macaques (rhesus monkeys) were selected, half male and half female, aged 3-4 years old, weighing 3.4-4.7 kg. […] The serum was separated according to a conventional method. The injection interval of each inhibitor was more than 2 weeks to ensure that there was no residue of the previous analyte. The serum activity against the HIV-1 strain NL4-3 (NL4-3D36G) was measured according to the experimental method of the pseudovirus-based assay in the above examples. The serum was diluted by 3 folds. […] Therefore, the lipopeptides of the present invention were not only potent but also were long-lasting effective.

[5] = tested on: NL4-3 pseudovirus carrying T-20 resistance mutation site of NHR; test: inhibition of T-20 resistant strains; type: cell-based, HIV-1; conditions: strains with single or double mutations
[6] = tested on: 35 HIV-1 pseudoviruses (subtypes A, B, B', C, G, A/C, A/E, B/C)

SMILES: CCCCCCCCCCCCCCCCCC(=O)NCCCC[C@H](NC(=O)[C@H](CCC(=O)O)NC(=O)[C@H](CC(C)C)NC(=O)[C@H](CCCCN)NC(=O)[C@H](CCCCN)NC(=O)[C@H](CC(C)C)NC(=O)[C@H](CCC(=O)O)NC(=O)[C@H](CCC(=O)O)NC(=O)[C@H](CCC(=O)O)NC(=O)[C@H](CC(N)=O)NC(=O)[C@H](CCCCN)NC(=O)[C@H](CCCCN)NC(=O)[C@H](CCC(N)=O)NC(=O)[C@H](CCC(N)=O)NC(=O)[C@H](CCC(=O)O)NC(=O)[C@H](CCC(=O)O)NC(=O)[C@H](C)NC(=O)[C@H](CCCCN)NC(=O)[C@H](CCCCN)NC(=O)[C@H](CC(C)C)NC(=O)[C@H](CC(C)C)NC(=O)[C@H](CCC(=O)O)NC(=O)[C@H](CCC(=O)O)NC(=O)[C@@H](NC(=O)[C@H](CCCCN)NC(=O)[C@H](CCC(N)=O)NC(=O)[C@H](CCC(=O)O)NC(=O)[C@H](Cc1c[nH]c2ccccc12)NC(C)=O)[C@@H](C)CC)C(N)=O [LP-80] (Ac-WEQKIEELLKKAEEQQKKNEEELKKLEK(Stearoyl)-NH2)
- IC50 ([1]; Entry of NL4-3 (D36G), read-out: IC50 for inhibiting pseudovirus): 2 pM
- inhibitory activity against NL4-3 entry (in words) ([1]; compared with LP-52): even greater than that of C16-modified LP-52
- inhibitory activity against SIV (in words) [2]: extremely potent inhibitory activity
- IC50 ([3]; Replication of JRCSF, read-out: IC50 for inhibiting replicative virus): 2 pM
- inhibitory activity against JRCSF replication (in words) ([3]; compared with LP-52): even greater than that of C16-modified LP-52
- maximum serum dilution multiple for inhibiting 50% of NL4-3 infectivity ([4]; 6 hour after injection): 491409 folds
- maximum serum dilution multiple for inhibiting 50% of NL4-3 infectivity ([4]; 8 hour after injection): 537206 folds
- maximum serum dilution multiple for inhibiting 50% of NL4-3 infectivity ([4]; 72 hours (3 days) after injection): 16157 folds
- maximum serum dilution multiple for inhibiting 50% of NL4-3 infectivity ([4]; 96 hours (4 days) after injection): 1980 folds
- maximum serum dilution multiple for inhibiting 50% of NL4-3 infectivity ([4]; 120 hours (5 days) after injection): 211 folds
- maximum serum dilution multiple for inhibiting 50% of NL4-3 infectivity ([4]; 144 hours (6 days) after injection): 46 folds
- inhibitory activity against T-20 resistant strains (in words) [5]: thousands to tens of thousands of times better than that of the LP-40
- IC50 ([6]; read-out: IC50 for many strains, many individual strains of the 35 pseudoviruses): < 1 pM
- IC50 ([6]; read-out: average IC50 for inhibition of various types of HIV-1 pseudoviruses, average over 35 pseudoviruses): 6 pM
- inhibitory activity against different subtypes of HIV-1 as folds of T-20 ([6]; relative to T-20, from average IC50): 6902 folds
